Reference: publication PMC3634512, “Inhibition of Human Transthyretin Aggregation by Non-Steroidal Anti-Inflammatory Compounds: A Structural and Thermodynamic Analysis” (International Journal of Molecular Sciences, 2013)

Assays:
Transthyretin (WT-TTR) = target: T1, Transthyretin (WT-TTR) (Homo sapiens, UniProt P02766); experiment: crystal structure (soaked crystals); ANS displacement (apparent Kd); format: binding
T1 construct: WT-TTR homotetramer

[1] = target: T2, Transthyretin (L55P variant) (Homo sapiens, UniProt P02766, L75P); experiment: ANS displacement from the hormone binding site (apparent Kd)
T2 construct: gene TTR; L55P TTR homotetramer

## Cc1ccc(Nc2c(F)cccc2Cl)c(CC(=O)O)c1 [LUM, lumiracoxib]
Transthyretin (WT-TTR)
  Kd: 1400 nM
[1]
  Kd: 1700 nM
